# Assay results: patent publication EP1994923A2, “Cosmetic and dermatological compositions for dry skin” (Henkel AG & Co. KGaA, priority 2007, dated 2008)
# System: Aquaporine (AQ3)
# Test: Influence on aquaporin synthesis in a skin model (indirect immunohistology)
# Type: cell-based
# Settings: skin model as in WO 03/053394 A2; 10 mg/ml test solution (extracts: 10 mg dry substance per ml); added systemically to the medium every two days; frozen after 6 days; cryosections
# Description: An einem Hautmodell, wie in WO 03/053394 A2 beschrieben, wurde der Einfluss folgender Substanzen auf die Aquaporinsynthese überprüft: • 1.) Ergothionein (10 mg/ml Testlösung) • 2.) Wässriger Extrakt aus Laminaria digitata (mit einem hohen Anteil an Laminarin; verwendet wurde das Handelsprodukt Phycojuvenine in einer solchen Menge, dass die Testlösung eine Konzentration von 10 mg Extrakt-Trockensubstanz pro ml aufwies) • 3.) Wässriges Proteinhydrolysat von Hefeproteinen (verwendet wurde das Handelsprodukt Biodynes TRF Powder von Arch Chemicals Inc. in einer von 10 mg Extrakt-Trockensubstanz pro ml Testlösung)
# Die Hautmodelle wurden nach Ankunft in frisches Medium gesetzt. Nach Vorinkubation über Nacht wurden sie alle zwei Tage mit den Testsubstanzen behandelt, indem der Wirkstoff systemisch in das Medium gegeben wurde. Die Kulturen wurden nach 6 Tagen für Cryoschnitte bei -80 °C eingefroren. Zum Zeitpunkt 0 wurden Kontrollproben eingefroren.
# Zum Nachweis von Aquaporinen (AQ3) wurde die indirekte Immunhistologie angewendet. Hierbei bindet ein unkonjungierter Primärantikörper an das Antigen. Anschließend wird ein Sekundärantikörper eingesetzt, der gegen den Primärantikörper gerichtet ist.
compound,measurement,value
"C[N+](C)(C)[C@@H](Cc1cnc(S)[nH]1)C(=O)[O-] [Ergothionein, 2-Mercapto-N^αN^αN^α-trimethyl-L-histidinium-Betain]",Aquaporinsynthese (Induktion der Aquaporine (AQ3)),stimulierten
